Source: ChEMBL document CHEMBL3039007, “Structure-based identification of OATP1B1/3 inhibitors” (Mol Pharmacol, 2013)

What was measured:
[1] = biological target: T1, Solute carrier organic anion transporter family member 1B3 (Homo sapiens, UniProt Q9NPD5); settings: chinese hamster, cho, 10 µM
T1 sequence (Q9NPD5 whole entry): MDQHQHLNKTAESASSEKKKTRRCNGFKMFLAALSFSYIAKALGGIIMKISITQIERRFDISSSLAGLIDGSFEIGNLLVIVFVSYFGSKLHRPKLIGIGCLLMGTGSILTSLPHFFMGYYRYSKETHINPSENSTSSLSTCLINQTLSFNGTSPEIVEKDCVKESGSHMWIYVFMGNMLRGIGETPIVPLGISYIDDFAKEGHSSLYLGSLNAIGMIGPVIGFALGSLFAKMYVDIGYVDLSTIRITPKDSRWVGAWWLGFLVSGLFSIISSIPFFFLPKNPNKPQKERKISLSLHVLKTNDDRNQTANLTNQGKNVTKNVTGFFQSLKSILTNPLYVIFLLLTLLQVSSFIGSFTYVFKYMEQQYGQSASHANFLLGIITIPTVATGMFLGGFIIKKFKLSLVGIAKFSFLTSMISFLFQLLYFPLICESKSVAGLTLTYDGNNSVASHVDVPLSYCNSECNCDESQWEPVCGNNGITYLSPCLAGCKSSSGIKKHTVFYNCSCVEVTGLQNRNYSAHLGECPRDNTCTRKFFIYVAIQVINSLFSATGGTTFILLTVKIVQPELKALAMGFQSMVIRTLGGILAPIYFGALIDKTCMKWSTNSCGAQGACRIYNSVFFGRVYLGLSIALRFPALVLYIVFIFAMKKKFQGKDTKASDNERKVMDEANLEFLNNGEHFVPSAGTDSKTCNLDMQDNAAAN

[2] = biological target: T2, Solute carrier organic anion transporter family member 1B1 (Homo sapiens, UniProt Q9Y6L6); settings: chinese hamster, cho, 10 µM
T2 sequence (Q9Y6L6 whole entry): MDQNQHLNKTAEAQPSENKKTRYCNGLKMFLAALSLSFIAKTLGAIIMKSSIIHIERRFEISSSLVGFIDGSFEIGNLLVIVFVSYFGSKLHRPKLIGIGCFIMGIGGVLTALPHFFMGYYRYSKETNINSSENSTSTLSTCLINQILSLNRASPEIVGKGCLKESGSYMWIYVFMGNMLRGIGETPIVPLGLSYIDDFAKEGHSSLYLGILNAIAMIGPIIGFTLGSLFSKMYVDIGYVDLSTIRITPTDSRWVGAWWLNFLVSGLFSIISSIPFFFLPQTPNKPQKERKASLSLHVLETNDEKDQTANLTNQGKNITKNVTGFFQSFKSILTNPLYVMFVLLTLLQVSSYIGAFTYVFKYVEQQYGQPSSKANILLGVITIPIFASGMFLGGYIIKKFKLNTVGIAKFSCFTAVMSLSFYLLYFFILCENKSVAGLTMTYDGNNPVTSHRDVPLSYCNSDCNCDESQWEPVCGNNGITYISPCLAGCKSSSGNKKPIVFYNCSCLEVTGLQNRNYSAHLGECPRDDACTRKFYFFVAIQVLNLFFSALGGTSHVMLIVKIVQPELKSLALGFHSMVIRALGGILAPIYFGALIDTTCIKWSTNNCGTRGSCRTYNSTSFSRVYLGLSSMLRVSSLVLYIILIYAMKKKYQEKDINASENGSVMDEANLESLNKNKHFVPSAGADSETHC

Structure (SMILES)	residual activity [1] [%]	residual activity [2] [%]
O=c1c(O)cc([C@H]2Oc3cc(O)cc(O)c3C[C@H]2O)cc2c([C@H]3Oc4cc(O)cc(O)c4C[C@H]3O)cc(O)c(O)c12 [THEAFLAVIN]	75.27	53
CCNC(=O)CC[C@H](N)C(=O)O [THEANINE]	82.21	120.6
O=C(O[C@@H]1Cc2c(O)cc(O)cc2O[C@@H]1c1cc(O)c(O)c(O)c1-c1c([C@H]2Oc3cc(O)cc(O)c3C[C@H]2OC(=O)c2cc(O)c(O)c(O)c2)cc(O)c(O)c1O)c1cc(O)c(O)c(O)c1 [THEASINENSIN A]	94.99	61.1
Cn1c(=O)c2[nH]cnc2n(C)c1=O.O [THEOPHYLLINE]	72.46	90.11
c1ccc2[nH]c(-c3cscn3)nc2c1 [THIABENDAZOLE]	94.36	76.75
CS(=O)(=O)c1ccc([C@@H](O)[C@@H](CO)NC(=O)C(Cl)Cl)cc1 [THIAMPHENICOL]	103.5	102.1
C=CCC1(C(C)CCC)C(=O)N=C([S-])NC1=O.[Na+] (centres undefined) [THIAMYLAL SODIUM]	103.8	84.73
CCCC(C)C1(CC)C(=O)[N-]C(=S)NC1=O.[Na+] (centres undefined) [THIOPENTAL SODIUM]	84.51	73.02
COC(=O)NC(=S)Nc1ccccc1NC(=S)NC(=O)OC [THIOPHANATE METHYL]	92.95	119
S=P(N1CC1)(N1CC1)N1CC1 [THIOTEPA]	70.43	67.53
CN1CCN(CC/C=C2/c3ccccc3Sc3ccc(S(=O)(=O)N(C)C)cc32)CC1 [THIOTHIXENE]	115.8	72.97
O=c1cc[nH]c(=S)[nH]1 [THIOURACIL]	77.62	95.34
CN(C)C(=S)SSC(=S)N(C)C [THIRAM]	99.01	104.4
COc1ccc(CN(CCN(C)C)c2ncccn2)cc1.Cl [THONZYLAMINE HYDROCHLORIDE]	91.98	88.59
CC1=CC(=O)C(C(C)C)=CC1=O [THYMOQUINONE]	98.24	126.4
CCN(CC)CCNC(=O)c1cc(S(C)(=O)=O)ccc1OC.Cl [TIAPRIDE HYDROCHLORIDE]	94.93	106.2
C[C@@H]1CC[C@@]2(OC1)O[C@H]1C[C@H]3[C@@H]4CC[C@H]5C[C@@H](O)CC[C@]5(C)[C@H]4CC[C@]3(C)[C@H]1[C@@H]2C [TIGOGENIN]	106.8	97
CNC(=N)NCCC[C@H](N)C(=O)O [TILARGININE]	97.33	94.97
CC(C)(C)NC[C@H](O)COc1nsnc1N1CCOCC1.O=C(O)/C=C\C(=O)O [TIMOLOL MALEATE]	102.2	113.3
O=c1oc2cc(O)ccc2s1 [TIOXOLONE]	76.34	67.3
NC[C@H]1O[C@H](O[C@H]2[C@H](O)[C@@H](O[C@H]3O[C@H](CO)[C@@H](O)[C@H](N)[C@H]3O)[C@H](N)C[C@@H]2N)[C@H](N)C[C@@H]1O [TOBRAMYCIN]	105.2	197.1
CCOC(=O)NNc1nncc2ccccc12.Cl [TODRALAZINE HYDROCHLORIDE]	106.5	100.5
Cl.c1ccc(CC2=NCCN2)cc1 [TOLAZOLINE HYDROCHLORIDE]	98.49	74.2
CCCCNC(=O)NS(=O)(=O)c1ccc(C)cc1 [TOLBUTAMIDE]	99.86	125.3

Structure (SMILES)	residual activity [1] [%]	residual activity [2] [%]
Cc1c(Cl)cccc1Nc1ccccc1C(=O)O [TOLFENAMIC ACID]	77.01	95.07
Cc1ccc(C(=O)c2ccc(CC(=O)[O-])n2C)cc1.[Na+] [TOLMETIN SODIUM]	90.31	127.1
Cc1cccc(N(C)C(=S)Oc2ccc3ccccc3c2)c1 [TOLNAFTATE]	119	126.3
Cc1ccc(C(=O)C(C)CN2CCCCC2)cc1.Cl (centres undefined) [TOLPERISONE HYDROCHLORIDE]	112.7	96.3
C[C@H]1CC[C@]2(NC1)O[C@H]1C[C@H]3[C@@H]4CC[C@H]5C[C@@H](O[C@@H]6O[C@H](CO)[C@H](O[C@@H]7O[C@H](CO)[C@@H](O)[C@H](O[C@@H]8OC[C@@H](O)[C@H](O)[C@H]8O)[C@H]7O[C@@H]7O[C@H](CO)[C@@H](O)[C@H](O)[C@H]7O)[C@H](O)[C@H]6O)CC[C@]5(C)[C@H]4CC[C@]3(C)[C@H]1[C@@H]2C [TOMATINE]	100.3	96.72
CC1(C)O[C@@H]2[C@@H](CO[C@@]3(COS(N)(=O)=O)OC(C)(C)O[C@@H]23)O1 [TOPIRAMATE]	106.5	93.31
Cc1cccc(Nc2ccncc2S(=O)(=O)NC(=O)NC(C)C)c1 [TORSEMIDE]	73.29	73.9
CC(C)c1c(O)ccc2c1CC[C@H]1[C@@](C)(C=O)CCC[C@]21C [TOTARAL]	100.9	80.52
CC(C)c1c(O)ccc2c1CC[C@H]1C(C)(C)CCC[C@]21C [TOTAROL]	131.3	159.4
CC1(C)C(C(Cl)Cl)C2(Cl)C(Cl)C(Cl)C1(Cl)C2(Cl)Cl (centres undefined) [TOXAPHENE]	109.5	111.3
CCOC(=O)[C@H](CCc1ccccc1)N[C@@H](C)C(=O)N1[C@H](C(=O)O)C[C@H]2CCCC[C@@H]21 [TRANDOLAPRIL]	102.1	118
NC[C@H]1CC[C@H](C(=O)O)CC1 [TRANEXAMIC ACID]	102.3	81.79
Cl.N[C@@H]1C[C@H]1c1ccccc1 [TRANYLCYPROMINE HYDROCHLORIDE]	89.57	80.64
N[C@@H]1C[C@H]1c1ccccc1.N[C@H]1C[C@@H]1c1ccccc1.O=S(=O)(O)O [TRANYLCYPROMINE SULFATE]	84.19	73.89
Cl.O=c1n(CCCN2CCN(c3cccc(Cl)c3)CC2)nc2ccccn12 [TRAZODONE HYDROCHLORIDE]	111.6	98.06
CC(=O)OCC(COC(C)=O)OC(C)=O [TRIACETIN]	86.74	98.2
CC(=O)Oc1ccc(/C=C/c2cc(OC(C)=O)cc(OC(C)=O)c2)cc1 [TRIACETYLRESVERATROL]	143.6	160.6
CC(C)(C)C(=O)C(Oc1ccc(Cl)cc1)n1cncn1 (centres undefined) [TRIADIMEFON]	87.3	75.79
CC(C)N(C(=O)SCC(Cl)=C(Cl)Cl)C(C)C [TRIALLATE]	109.6	119.9
CC1(C)O[C@@H]2C[C@H]3[C@@H]4CCC5=CC(=O)C=C[C@]5(C)[C@@]4(F)[C@@H](O)C[C@]3(C)[C@]2(C(=O)CO)O1 [TRIAMCINOLONE ACETONIDE]	115.5	128.1
CC(=O)OCC(=O)[C@@]1(O)[C@H](OC(C)=O)C[C@H]2[C@@H]3CCC4=CC(=O)C=C[C@]4(C)[C@@]3(F)[C@@H](O)C[C@@]21C [TRIAMCINOLONE DIACETATE]	104.9	98.08
C[C@]12C=CC(=O)C=C1CC[C@H]1[C@@H]3C[C@@H](O)[C@](O)(C(=O)CO)[C@@]3(C)C[C@H](O)[C@@]12F [TRIAMCINOLONE]	81.81	70.81
O=c1cc(-c2cc(O)c(O)c(O)c2)oc2cc(O)cc(O)c12 [TRICETIN]	127.6	79.5
